The values below come from patent US11629201B2, “PSMA-binding agents and uses thereof” (ITM Isotope Technologies Munich SE, priority 2017, dated 2023).

Series [1] is described as follows: n-Octanol/PBS distribution coefficient (log D). Format: physicochemical. As to conditions: n-octanol/PBS; radiolabeled ligand, 50 MBq/nmol, PBS pH 7.4. The procedure: The radioligand (0.5 MBq; 10 pmol, 25 μL) was then added to a reagent tube containing 1475 μL of PBS pH 7.4 and 1500 μL of n-octanol. The vials were vortexed vigorously followed by a centrifugation step for phase separation.
Determination of n-Octanol/PBS Distribution Coefficients (Log D Values). The distribution coefficients (log D values) of the ^64Cu-labeled radioligands (50 MBq/nmol) were determined by a shake-flask method using liquid-liquid extraction followed by phase separation as previously reported. Three experiments were performed with five replicates for each radioligand. Statistical significance of the data (p<0.05) was evaluated using an unpaired t-test (GraphPad Prism software, version 7).
Determination of n-Octanol/PBS Distribution Coefficients (Log D Values). […] A sample of the radioligands was mixed with phosphate-buffered saline (PBS) and n-octanol followed by vigorous vortexing. […] Three experiments were performed with five replicates for each compound.

Series [2] concerns PSMA-positive PC-3 PIP cells. Put plainly: Cell uptake and internalization in PSMA-positive PC-3 PIP cells. Format: cell-based. The conditions noted are these: 2 h and 4 h time-point, PC-3 PIP cells.
Series [3] has as its system PC-3 PIP/flu tumor-bearing mice. Put plainly: Biodistribution studies in PC-3 PIP/flu tumor-bearing mice. The conditions noted are these: for Tumor-to-blood / Tumor-to-kidney / Tumor-to-liver: PC-3 PIP tumor.
The next series concerns PC-3 PIP tumor. Put plainly: Therapy study in PC-3 PIP tumor-bearing mice. It counts as in vivo. From the text:
Mice of Groups B and D received 2 MBq of the radioligand (1 nmol/mouse), whereas mice of Groups C and E received 5 MBq of the radioligand (1 nmol/mouse). The mice were monitored by measuring body weights and the tumor size every other day over 12 weeks. Mice were euthanized when pre-defined endpoint criteria were reached, or when the study was terminated at Day 84. The relative body weight (RBW) was defined as [BWx/BW0], where BWx is the body weight in gram at a given day x and BW0 the body weight in gram at day 0. The tumor dimension was determined by measuring the longest tumor axis (L) and its perpendicular axis (W) with a digital caliper. The tumor volume (V) was calculated according to the equation [V=0.5*(L*W2)]. The relative tumor volume (RTV) was defined as [TVx/TV0], where TVx is the tumor volume in mm3 at a given day x and TV0 the tumor volume in mm3 at Day 0.
The efficacy of the radionuclide therapy was expressed as the tumor growth delay (TGDx), which was calculated as the time required for the tumor volume to increase x-fold over the initial volume at the Day 0. The tumor growth delay index [TGDIx=TGDx(T)/TGDx(C)] was calculated as the TGDx ratio of treated mice (T) over control mice (C) for a 2-fold (x=2, TGD2) and 5-fold (x=5, TGD5) increase of the initial tumor volume. As a measure to identify undesired side effects, body weights were compared at the day when the first control mouse had to be euthanized. After euthanasia, kidneys, liver and the brain were collected and weighed. The organ ratios (kidney-to-brain and liver-to-brain) were calculated using the organ masses obtained at the day of euthanasia.
The data was analyzed for significance as indicated in the result part using a one-way ANOVA with Tukey's multiple comparison post-test using GraphPad Prism software (version 7). A value of p<0.05 was considered statistically significant. Survival analysis was performed with Kaplan-Meier curves and a log-rank tests (Mantel Cox).

The mark [4] stands for this setting: 2 MBq/mouse (Groups B, D), control = 1.

Each structure is given as a SMILES string.

In turn, `O=C(O)CCC(NC(=O)NC(CCCCNC(=O)C(Cc1ccc2ccccc2c1)NC(=O)C1CCC(CNC(=O)C(CCCCNC(=O)CN2CCN(CC(=O)O)CCN(CC(=O)O)CCN(CC(=O)O)CC2)NC(=O)CC(NC(=O)CC(NC(=O)CC(NC(=O)CCCc2ccc(I)cc2)C(=O)O)C(=O)O)C(=O)O)CC1)C(=O)O)C(=O)O` (centres unmarked) [PSMA-ALB-07] came in with a pH-dependent lipophilicity (logD) in series [1] of -3.9 ± 0.25.
On the same count and under the same terms, under `O=C(O)CC[C@H](NC(=O)N[C@@H](CCCCNC(=O)[C@H](Cc1ccc2ccccc2c1)NC(=O)[C@H]1CC[C@H](CNC(=O)CN2CCN(CC(=O)O)CCN(CC(=O)O)CCN(CC(=O)O)CC2)CC1)C(=O)O)C(=O)O` [PSMA-617, reference compound] stands -4.4 ± 0.15.
Still for that read-out and setting: with `O=C(O)CCC(NC(=O)NC(CCCCNC(=O)C(Cc1ccc2ccccc2c1)NC(=O)C1CCC(CNC(=O)C(CCCCNC(=O)CN2CCN(CC(=O)O)CCN(CC(=O)O)CCN(CC(=O)O)CC2)NC(=O)CC(NC(=O)CC(NC(=O)CCCc2ccc(I)cc2)C(=O)O)C(=O)O)CC1)C(=O)O)C(=O)O` (centres unmarked) [PSMA-ALB-05] the figure was -3.5 ± 0.08; with `Cc1ccc(CCCC(=O)NCCCCC(NC(=O)CN2CCN(CC(=O)O)CCN(CC(=O)O)CCN(CC(=O)O)CC2)C(=O)NCC2CCC(C(=O)NC(Cc3ccc4ccccc4c3)C(=O)NCCCCC(NC(=O)NC(CCC(=O)O)C(=O)O)C(=O)O)CC2)cc1` (centres unmarked) [^64Cu-PSMA-ALB-06, metal not drawn], -3.1 ± 0.1; with `O=C(O)CC[C@H](NC(=O)N[C@@H](CCCCNC(=O)[C@H](Cc1ccc2ccccc2c1)NC(=O)[C@H]1CC[C@H](CNC(=O)[C@@H](CCCCNC(=O)CN2CCN(CC(=O)O)CCN(CC(=O)O)CCN(CC(=O)O)CC2)NC(=O)CCCc2ccc(I)cc2)CC1)C(=O)O)C(=O)O` [PSMA-ALB-02], -2.8 ± 0.09.
With `Cc1ccc(CCCC(=O)NCCCCC(NC(=O)CN2CCN(CC(=O)O)CCN(CC(=O)O)CCN(CC(=O)O)CC2)C(=O)NCC2CCC(C(=O)NC(Cc3ccc4ccccc4c3)C(=O)NCCCCC(NC(=O)NC(CCC(=O)O)C(=O)O)C(=O)O)CC2)cc1` (centres unmarked) [^177Lu-PSMA-ALB-06, metal not drawn], in series [2], the “internalized fraction / internalization rate versus reference” value is listed as “still comparable to ^177Lu-PSMA-617”. Moreover, in series [3] (4 h p.i.), the Blood came to 16.2 ± 1.40 % IA/g, the Bone is given as 2.23 ± 0.08 % IA/g, the Intestines is reported as 2.64 ± 0.27 % IA/g and the Lung is 9.40 ± 1.55 % IA/g. In addition, in series [3] (4 h p.i.), the Muscle was determined as 1.60 ± 0.38 % IA/g, the “PC-3 PIP Tumor” value amounted to 76.08 ± 7.67 % IA/g, the Tumor-to-blood is 4.72 ± 0.51 and the Tumor-to-kidney was 4.02 ± 0.25. The Tumor-to-liver in series [3] (4 h p.i.) was 24.29 ± 8.27. In series [3] (24 h p.i.), this molecule had a Blood of 1.49 ± 0.50 % IA/g, a Bone of 0.41 ± 0.15 % IA/g, a Heart of 0.68 ± 0.18 % IA/g and an Intestines of 0.30 ± 0.06 % IA/g. Moreover, in series [3] (24 h p.i.), the Lung stood at 2.48 ± 2.68 % IA/g, the Muscle was 0.21 ± 0.04 % IA/g, the “PC-3 PIP Tumor” value came to 108 ± 11.6 % IA/g and the “PC-3 flu Tumor” value was 0.79 ± 0.23 % IA/g. In series [3] (24 h p.i.), this molecule displayed a Spleen of 0.76 ± 0.18 % IA/g, a Stomach of 0.28 ± 0.07 % IA/g, a Tumor-to-blood of 77.6 ± 21.8 and a Tumor-to-kidney of 10.4 ± 1.16. The molecule further had a Tumor-to-liver in series [3] (24 h p.i.) of 222 ± 49.5. In series [3] (72 h p.i.), the Blood is given as 0.62 ± 0.06 % IA/g, the Bone turned out to be 0.18 ± 0.01 % IA/g, the Heart is recorded as 0.26 ± 0.02 % IA/g and the Intestines was determined as 0.15 ± 0.00 % IA/g. Also, in series [3] (72 h p.i.), the Kidneys is given as 5.58 ± 0.62 % IA/g, the Liver was 0.28 ± 0.02 % IA/g, the Lung worked out at 0.67 ± 0.05 % IA/g and the “PC-3 PIP Tumor” value came out at 77.9 ± 7.52 % IA/g. Also, in series [3] (72 h p.i.), the “PC-3 flu Tumor” value came to 0.43 ± 0.03 % IA/g, the Salivary glands worked out at 0.24 ± 0.03 % IA/g, the Stomach was determined as 0.13 ± 0.02 % IA/g and the Tumor-to-blood is reported as 127 ± 24.9. In addition, in series [3] (72 h p.i.), the Tumor-to-kidney turned out to be 14.1 ± 2.02 and the Tumor-to-liver turned out to be 277 ± 19.3. In the series on PC-3 PIP tumor (2 MBq/mouse (Groups B, D)), the “first mouse of group euthanized” value came out at 28 days and the median survival was 36 days. In the series on PC-3 PIP tumor (setting [4]), this molecule had a TGDI2 of 1.8 ± 0.5 and a TGDI5 of 2.3 ± 0.6. Besides, the tumor growth entry with PC-3 PIP tumor (5 MBq/mouse (Group E)) is given as “the tumor growth was effectively inhibited”. In the series with PC-3 PIP tumor (5 MBq/mouse (Group E), n=6), the “mice in which tumors disappeared entirely, no regrowth until Day 84” value was “four” and the “mice still alive at the end of the study at Day 84” value is reported as “four”. The “first mouse of group euthanized” value in the series with PC-3 PIP tumor (5 MBq/mouse (Groups C, E)) is 58 days.
